Laboratory results reported in paper PMC7618597, “Dual Nurr1/RXR agonism of valerenic acid and synthetic mimetics enables dimer-selective Nurr1 modulation” (ACS medicinal chemistry letters, 2025).

Experiments:
HEK293T cells = experiment: Multiplex toxicity assay; format: cell-based; settings: for toxicity at the test concentrations of the gene expression study: 2 (10 μM), 3 (1 μM), multiplex toxicity assay; for concentration at which toxic effects start: HEK293T cells, confluence, metabolic activity, pyknosis, necrosis, n=4
Protocol: page 9: and 20 s of elongation at 68 °C. PCR product specificity was evaluated using a melting curve analysis ranging from 65 to 95 °C. Nurr1 target gene expression was normalized to rGAPDH mRNA expression per sample using the ΔCt-method. The following primers and annealing temperatures were used: rGAPDH (59.4 °[…]); rTH (59.4 °C): 5'-[…]); rFLRT2 (59.0 °C): 5'-[NT]); rSESN3 (62.4 °C): […]); rCRMP4 (58.0 °C): […]); rBDNF (58.0 °C): 5'-[NT]); rBIRC5 (59.4 °C): 5'-[…]); rCCND2 (59.0 °C): [NT]); rXIAP (61.1 °C): […]); rSOD2 (59.4 °C): [NT]). Multiplex toxicity assay. HEK293T cells were grown in DMEM high glucose, supplemented with 10% FCS, sodium pyruvate (1 mM), penicillin (100 U/mL), and streptomycin (100 μg/mL) at 37 °C and 5% CO2. The day before experiment, cells were seeded in 96-well plates (2 × 10^4 cells per well) in culture medium with reduced serum content (0.2%). The next day, medium was changed, maintaining the low serum content and additionally containing 0.1% DMSO with 2 (1 or 10 μM) or 3 ([…]), 0.1% DMSO with bexarotene (100 μM) or flavopiridol (100 μM) as positive controls, or 0.1% DMSO alone as untreated control. Each sample was prepared in 4 biologically independent replicates. After incubation for 24 h, the medium was changed to 90 μL culture medium without phenol red (0.2% FCS) and 10 μL Cell Counting Kit- 8 solution (CCK-8, MedChem Express #HY-[…]), and absorbance was measured after 2 h incubation at 450 nm on a Tecan Spark Cyto (Tecan Group AG) to assess metabolic activity of the cells. Thereafter, Hoechst33342 (10 μM, #ab228551, Abcam Limited, Cambridge, UK) and Live-or-Dye Nuc-Fix Red (0.05×, Biotium, Inc., Fremont, CA, 1691 USA) were added and incubated for 30 min to detect pyknosis and cellular necrosis, respectively. After incubation, a total of 3 fluorescence images per well at 10× magnification was taken to detect Hoechst33342-positive cell nuclei (Ex: 381-400 nm, Em: 414-450 nm) and Live-or- Dyepositive cells (Ex: 543-566 nm, Em: 580-611 nm), respectively, using a Tecan Spark Cyto (Tecan Group AG). Necrotic cells were counte d using CellProfiler (Version 4.2.6). Reference readings for background correction and detection of autofluorescence were taken at the same wavelengths prior to staining. Before drug administration, after the first medium exchange, 24 h after drug administration, and after fluorescence imaging cell confluence was assessed using the Tecan Spark Cyto, to account for changes in cell confluence due to drug administration and cell handling. Pyknosis was defined via a cutoff range describing the significant shift of Hoechst33342-positive signal per nuclear area in bexarotene vs. vehicle treated cells. The mean intensity/area values for each well were further normalized to the […] increment of pyknosis. […]

[1] = target: T1, Nurr1:RXR heterodimer (DR5) (Homo sapiens, UniProt P19793+P43354); experiment: Full-length Nurr1 reporter gene assay, heterodimer response element DR5; format: cell-based; settings: read-out: EC50, activation of the Nurr1:RXR heterodimer (DR5)
T1 construct: full-length human nuclear receptor Nurr1 encoded by pcDNA3.1 -hNurr1-NE; full length human RXRα encoded by pSG5-hRXR; host or cells: HEK293T
T1 sequence (P43354 whole entry): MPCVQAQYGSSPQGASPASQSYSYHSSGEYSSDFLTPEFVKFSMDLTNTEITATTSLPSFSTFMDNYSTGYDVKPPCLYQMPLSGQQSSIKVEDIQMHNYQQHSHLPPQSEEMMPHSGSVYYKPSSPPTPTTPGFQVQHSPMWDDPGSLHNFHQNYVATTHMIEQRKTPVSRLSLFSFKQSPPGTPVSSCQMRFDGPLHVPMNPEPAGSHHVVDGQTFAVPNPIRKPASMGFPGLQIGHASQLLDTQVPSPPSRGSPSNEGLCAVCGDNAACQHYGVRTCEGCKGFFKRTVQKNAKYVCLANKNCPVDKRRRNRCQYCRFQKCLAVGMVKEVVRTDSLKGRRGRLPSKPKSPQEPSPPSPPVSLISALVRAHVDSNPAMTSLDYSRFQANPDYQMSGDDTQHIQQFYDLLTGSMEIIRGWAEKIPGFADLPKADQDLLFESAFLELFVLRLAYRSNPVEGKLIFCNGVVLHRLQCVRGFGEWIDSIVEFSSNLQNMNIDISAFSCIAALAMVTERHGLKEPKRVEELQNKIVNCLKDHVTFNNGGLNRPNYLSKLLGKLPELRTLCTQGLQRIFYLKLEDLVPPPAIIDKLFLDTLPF
T1 sequence (P19793 whole entry): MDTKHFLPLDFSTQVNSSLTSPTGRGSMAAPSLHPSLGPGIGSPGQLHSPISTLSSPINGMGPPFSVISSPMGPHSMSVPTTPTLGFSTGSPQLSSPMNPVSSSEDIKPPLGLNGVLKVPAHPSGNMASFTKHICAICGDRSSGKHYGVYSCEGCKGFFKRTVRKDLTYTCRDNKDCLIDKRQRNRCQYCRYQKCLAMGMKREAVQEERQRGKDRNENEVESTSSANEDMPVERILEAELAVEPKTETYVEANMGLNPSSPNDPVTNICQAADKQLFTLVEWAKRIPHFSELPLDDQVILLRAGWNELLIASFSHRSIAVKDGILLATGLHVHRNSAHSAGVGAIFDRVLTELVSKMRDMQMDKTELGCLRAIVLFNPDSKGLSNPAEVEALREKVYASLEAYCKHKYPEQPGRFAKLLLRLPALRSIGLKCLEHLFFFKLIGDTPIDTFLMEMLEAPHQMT
Protocol: Based on these findings, we next determined the effects of 2 and 3 on Nurr1 activity in a cellular setting using reporter constructs for the NGFI-B response element (NBRE), the Nur response element (NurRE), and the direct repeat 5 (DR5)[36]. All three response elements are robustly activated by common Nurr1 agonists[4],[31]. […]
Reporter gene assays for full-length human Nurr1 and RXR. Modulation of full-length human Nurr1 (NR4A2) was studied using pRL-SV40 (1.5 ng/well reporter plasmid) and the previously described4 reporter plasmids pFR-Luc-NBRE (100 ng/well reporter plasmid), pFR-Luc-NurRE (50 ng/well reporter plasmid) or pFR-Luc-DR5 (50 ng/well reporter plasmid). […] Five hours after transfection, the cells wer e incubated with the test compounds in Opti-MEM supplemented with penicillin (100 U/mL), streptomycin (100 μg/mL), and 0.1% DMSO for 15 h before luciferase activity was measured using the Dual-Glo Luciferase Assay System (Promega) according to the manufacturer’s protocol on a Tecan Spark luminometer (Tecan Deutschland GmbH, Germany). Firefly luminescence was divided by Renilla luminescence and multiplied by 1000, resulting in relative light units (RLU) to normalize for transfection efficiency and cell growth. […]

Row | SMILES | toxicity at the test concentrations of the gene expression study (HEK293T cells) | concentration at which toxic effects start (HEK293T cells) [µM] | EC50 [1] [nM]
1 | Cc1c2c(n(-c3ccc(CC(=O)O)cc3)c1C)CCC(F)(F)C2 [compound 2] | non-toxic | > 30 | 1000
2 | Cc1c(C)n(-c2ccc(CC(=O)O)cc2)c2ccc(F)cc12 [compound 3] | non-toxic | 10 | 600
